{"source": "patent US11208414B2", "about": "“Ectonucleotidase inhibitors and methods of use thereof” (Calithera Biosciences, Inc., priority 2016, dated 2021)", "target": "recombinant CD73 (Homo sapiens (Human), UniProt P21589)", "sequence (P21589 27-547)": "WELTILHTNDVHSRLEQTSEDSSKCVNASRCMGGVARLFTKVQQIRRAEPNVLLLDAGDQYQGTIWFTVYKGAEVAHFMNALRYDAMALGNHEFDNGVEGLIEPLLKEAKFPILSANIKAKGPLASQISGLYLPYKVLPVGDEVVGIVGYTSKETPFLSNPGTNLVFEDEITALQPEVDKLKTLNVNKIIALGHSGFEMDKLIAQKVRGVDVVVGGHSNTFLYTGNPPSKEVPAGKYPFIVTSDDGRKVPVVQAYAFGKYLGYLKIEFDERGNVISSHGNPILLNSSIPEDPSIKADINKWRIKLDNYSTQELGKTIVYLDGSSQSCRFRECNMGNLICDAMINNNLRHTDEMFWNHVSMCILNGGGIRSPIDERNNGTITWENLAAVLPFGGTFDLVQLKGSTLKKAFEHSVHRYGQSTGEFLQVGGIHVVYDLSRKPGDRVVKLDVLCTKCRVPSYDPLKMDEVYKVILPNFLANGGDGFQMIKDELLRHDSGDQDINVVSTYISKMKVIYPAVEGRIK", "test": "Inhibition of soluble recombinant CD73 enzyme activity (Malachite Green)", "assay_type": "biochemical", "conditions": "recombinant CD73 0.5 nM, AMP 50 μM, 30 minutes at room temperature", "experimental": "The concentration of inorganic phosphate was determined using a phosphate standard curve."}
{"smiles": "Nc1ncnc2c1ncn2[C@@H]1O[C@H](COC(C(=O)O)C(=O)O)[C@@H](O)C1F", "note": "(stereo in doubt) [compound 9, 2-(((2R,3R,4R,5R)-5-(6-amino-9H-purin-9-yl)-4-fluoro-3-hydroxytetrahydrofuran-2-yl)-methoxy)malonic acid]", "values": [{"measurement": "IC50", "result": "> 50", "unit": "µM"}]}
